Data: patent US20240122829A1, “HAIR COMPOSITIONS, HAIR FORMULATIONS, PROCESSES OF PRODUCTION THEREOF, USES AND METHODS OF HAIR TREATMENT” (CHEMYUNION LTDA., priority 2021, published 2024)

Test: Repairing effect: maximum tension of hair fibers after 3 discoloration processes, composition applied in a leave-in base
Details: synergy test, after 3 discolorations; compositions at 5% in leave-in base; FIG. 11
Procedure: To evaluate the effectiveness of the repairing effect, tests of maximum tension were performed after 2 or 3 discoloration processes in hair samples, composed by a naïve control group (without discoloration process), a discolored control group, a group discolored with application of the Benchmark 1 composition and a group containing the compositions of the present patent application after two or three discoloration processes, the composition being applied in a leave-in base containing 1% or 5% of the composition, this composition being the Base A or Base B, while Benchmark consisted of a ready-to-use cosmetic base (Benchmark 2 or Benchmark 3).
The leave-in base comprises: 3%-5% cetostearyl alcohol 30/70; 0.8-2.5% cetyl alcohol 0.8-2.5%; 0.05%-0.1% disodium EDTA; 0.8%-2.5% CCTA cetyl trimethyl ammonium chloride; 0.25%-1% preservatives and anti-microbial agents and water q.s. […]
After the discoloration process, a standardized amount of Leave-in was applied to the strands with or without (control) 1% or 5% of the hair composition of the present patent application on damp hair, and this composition may be the Base A or Base B or the actives making up Base B, while the benchmark consisted of a ready-to-use cosmetic base (Benchmark 2 or Benchmark 3). […]

Structure (SMILES): N=C(N)NCCC[C@H](N)C(=O)O [arginine]
- increase in resistance in relation to the discolored strand: 3.9%
